Activity calls are given as the source filed them.
Columns and labels:
[1] = biological target: UDP-galactopyranose mutase (Mycobacterium tuberculosis, UniProt P9WIQ1); experiment: Inhibitors of Mycobacterium tuberculosis UDP-galactopyranose mutase (UGM) enzyme Measured in Biochemical System Using Plate Reader - 2105-02_Inhibitor_Dose_CherryPick_Activity. [Related pubchem assays (depositor defined):AID504439]
[2] = viability of uninfected HEp-2 cells – cell-based, HTS, cytotoxicity control for RSV inhibitor project, dose response (AID 2410); format: functional; settings: human respiratory syncytial virus
[3] = Luminescence Cell-Based Dose Confirmation HTS to Identify Activators of 5'UTR Stem-Loop Driven Alpha-Synuclein mRNA Translation in H4 Neuroglioblastoma Cells. [Related pubchem assays: 1829 (Project Summary), 1814 (Primary HTS)]; format: functional
[4] = Luminescence Cell-Based Dose Response HTS to Identify Activators of Luciferase Translation or Activity in H4 […] Cells. [Related pubchem assays: 1829 (Project Summary), 1814 (Primary HTS)]; format: functional
H4 = experiment: Luminescence Cell-Based Dose Response HTS to Identify Activators of 5'UTR Stem-Loop Driven Prion Protein mRNA Translation in H4 Neuroglioblastoma Cells. [Related pubchem assays: 1829 (Project Summary), 1814 (Primary HTS)]; format: functional; settings: Homo sapiens
[5] = microbe, parasite or virus in culture; format: functional; settings: Mycobacterium tuberculosis
Exodeoxyribonuclease V = biological target: T1, Exodeoxyribonuclease V (Escherichia coli (strain K12), UniProt P04993+P07648+P08394); experiment: RecBCD inhibition via phage-restricted bacterial growth – absorbance, V66 E. coli, mutant T4 phage, counter-screen for AddAB inhibitor project, dose response (AID 492957); format: functional, cell-based, Escherichia coli str. K-12 substr. MG1655
T1 sequence (P04993 whole entry): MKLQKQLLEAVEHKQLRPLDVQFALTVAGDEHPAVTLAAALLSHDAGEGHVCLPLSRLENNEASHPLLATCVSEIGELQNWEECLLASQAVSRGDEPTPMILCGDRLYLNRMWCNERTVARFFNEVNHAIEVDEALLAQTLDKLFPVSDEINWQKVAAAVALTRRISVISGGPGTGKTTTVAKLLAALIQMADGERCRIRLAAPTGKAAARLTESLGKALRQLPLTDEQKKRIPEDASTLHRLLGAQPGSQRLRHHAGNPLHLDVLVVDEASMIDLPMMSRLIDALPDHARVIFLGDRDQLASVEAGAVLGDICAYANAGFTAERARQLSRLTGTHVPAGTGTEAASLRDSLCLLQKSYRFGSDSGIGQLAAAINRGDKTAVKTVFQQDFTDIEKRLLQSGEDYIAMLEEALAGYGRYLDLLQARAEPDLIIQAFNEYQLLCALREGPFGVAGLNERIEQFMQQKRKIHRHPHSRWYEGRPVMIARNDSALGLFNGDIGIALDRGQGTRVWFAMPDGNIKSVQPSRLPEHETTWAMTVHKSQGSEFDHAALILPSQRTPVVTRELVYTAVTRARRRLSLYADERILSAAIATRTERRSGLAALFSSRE
T1 sequence (P07648 whole entry): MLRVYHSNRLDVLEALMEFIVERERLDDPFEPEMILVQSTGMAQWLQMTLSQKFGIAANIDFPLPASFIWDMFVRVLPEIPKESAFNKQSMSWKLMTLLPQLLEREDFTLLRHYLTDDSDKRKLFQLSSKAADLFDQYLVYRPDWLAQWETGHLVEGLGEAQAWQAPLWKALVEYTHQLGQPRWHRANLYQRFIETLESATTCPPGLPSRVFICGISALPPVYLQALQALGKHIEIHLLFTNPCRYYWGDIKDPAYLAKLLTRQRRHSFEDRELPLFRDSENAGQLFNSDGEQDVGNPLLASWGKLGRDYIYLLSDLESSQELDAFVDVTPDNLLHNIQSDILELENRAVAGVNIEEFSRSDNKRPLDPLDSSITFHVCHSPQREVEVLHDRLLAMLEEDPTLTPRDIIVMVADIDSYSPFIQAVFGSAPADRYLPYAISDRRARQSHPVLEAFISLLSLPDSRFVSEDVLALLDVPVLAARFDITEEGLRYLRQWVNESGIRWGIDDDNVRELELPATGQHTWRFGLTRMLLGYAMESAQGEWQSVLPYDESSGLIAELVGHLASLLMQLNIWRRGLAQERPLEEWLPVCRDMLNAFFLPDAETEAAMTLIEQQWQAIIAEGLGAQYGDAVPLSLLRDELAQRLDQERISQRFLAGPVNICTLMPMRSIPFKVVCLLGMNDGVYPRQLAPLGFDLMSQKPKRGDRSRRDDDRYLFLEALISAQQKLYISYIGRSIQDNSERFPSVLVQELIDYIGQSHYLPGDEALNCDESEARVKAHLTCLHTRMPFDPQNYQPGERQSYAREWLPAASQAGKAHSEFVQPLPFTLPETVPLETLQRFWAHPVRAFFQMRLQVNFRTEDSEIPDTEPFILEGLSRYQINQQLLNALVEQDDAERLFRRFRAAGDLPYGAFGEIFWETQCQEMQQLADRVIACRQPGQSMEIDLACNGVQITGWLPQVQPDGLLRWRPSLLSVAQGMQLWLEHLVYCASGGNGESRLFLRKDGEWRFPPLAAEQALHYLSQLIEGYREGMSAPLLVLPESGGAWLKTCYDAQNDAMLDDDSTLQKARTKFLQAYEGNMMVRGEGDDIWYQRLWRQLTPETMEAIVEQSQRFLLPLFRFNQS
T1 sequence (P08394 whole entry): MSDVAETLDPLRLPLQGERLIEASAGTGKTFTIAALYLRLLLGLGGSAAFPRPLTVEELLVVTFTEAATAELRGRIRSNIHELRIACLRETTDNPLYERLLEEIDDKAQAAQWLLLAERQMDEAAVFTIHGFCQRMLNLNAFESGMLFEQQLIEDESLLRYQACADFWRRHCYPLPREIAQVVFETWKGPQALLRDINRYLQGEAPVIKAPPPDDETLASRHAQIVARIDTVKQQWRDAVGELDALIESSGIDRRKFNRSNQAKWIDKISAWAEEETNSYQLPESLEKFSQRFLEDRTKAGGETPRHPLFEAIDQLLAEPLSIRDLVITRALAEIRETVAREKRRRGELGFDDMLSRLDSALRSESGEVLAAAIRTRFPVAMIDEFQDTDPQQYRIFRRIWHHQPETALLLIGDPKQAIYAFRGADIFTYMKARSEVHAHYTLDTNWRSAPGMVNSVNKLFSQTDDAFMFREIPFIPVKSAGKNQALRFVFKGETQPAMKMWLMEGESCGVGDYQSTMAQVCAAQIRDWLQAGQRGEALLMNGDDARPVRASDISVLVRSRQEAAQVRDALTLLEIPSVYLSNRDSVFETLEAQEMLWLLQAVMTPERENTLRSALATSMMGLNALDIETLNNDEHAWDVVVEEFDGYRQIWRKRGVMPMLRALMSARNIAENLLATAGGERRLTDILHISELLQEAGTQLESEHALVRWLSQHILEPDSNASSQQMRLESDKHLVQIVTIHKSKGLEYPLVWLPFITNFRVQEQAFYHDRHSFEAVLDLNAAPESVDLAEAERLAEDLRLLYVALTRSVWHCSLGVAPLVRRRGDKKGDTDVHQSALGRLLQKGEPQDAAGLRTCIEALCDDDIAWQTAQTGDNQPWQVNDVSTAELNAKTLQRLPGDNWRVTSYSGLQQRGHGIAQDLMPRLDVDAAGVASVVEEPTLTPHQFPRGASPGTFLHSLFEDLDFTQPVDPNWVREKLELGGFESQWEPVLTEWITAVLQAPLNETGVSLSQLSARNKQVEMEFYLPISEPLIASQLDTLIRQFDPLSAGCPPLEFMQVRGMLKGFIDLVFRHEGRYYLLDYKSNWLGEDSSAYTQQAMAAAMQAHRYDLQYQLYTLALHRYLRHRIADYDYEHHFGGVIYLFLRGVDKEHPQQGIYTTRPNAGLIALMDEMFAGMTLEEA

[6] = Counterscreen for AddAB inhibitors: absorbance-based bacterial cell-based high throughput dose response assay for inhibitors of bacterial viability. [Related pubchem assays (depositor defined):AID435030, AID449728, AID449731, AID488942, AID488955, AID488956]; format: functional
HEK293 = experiment: cells; format: functional, cell-based; settings: Homo sapiens
[7] = biological target: T2, Nuclear receptor subfamily 0 group B member 1 (Homo sapiens, UniProt P51843); experiment: Luminescence-based cell-based high throughput dose response assay for inhibitors of the orphan nuclear receptor subfamily 0, group B, member 1 (DAX1; NR0B1). [Related pubchem assays (depositor defined):AID504766, AID504790]; format: functional
T2 sequence (P51843 whole entry): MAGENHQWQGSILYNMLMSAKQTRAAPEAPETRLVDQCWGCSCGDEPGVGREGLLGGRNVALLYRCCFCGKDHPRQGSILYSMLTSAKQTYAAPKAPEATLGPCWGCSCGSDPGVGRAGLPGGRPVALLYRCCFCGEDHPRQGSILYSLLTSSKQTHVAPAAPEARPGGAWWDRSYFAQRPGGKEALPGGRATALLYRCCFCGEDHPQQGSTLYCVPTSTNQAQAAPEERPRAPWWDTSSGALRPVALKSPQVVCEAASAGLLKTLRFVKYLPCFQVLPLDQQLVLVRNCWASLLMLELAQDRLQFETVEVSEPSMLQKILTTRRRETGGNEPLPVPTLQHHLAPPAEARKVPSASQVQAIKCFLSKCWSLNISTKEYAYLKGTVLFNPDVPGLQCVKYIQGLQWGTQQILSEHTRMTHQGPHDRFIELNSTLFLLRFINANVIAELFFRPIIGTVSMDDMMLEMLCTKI

Cytochrome P450 2C19 = Cytochrome P450 2C19 (Homo sapiens, UniProt P33261); experiment: Cytochrome panel assay with activity outcomes. Panel member name: p450-cyp2c19 Compounds with AC50 equal or less than 10 uM are considered active; format: functional; settings: read-out: AC50
CHO = CHO cell viability loss, potency – luminescence, cytotoxicity control for TLR9-MyD88 binding inhibitor project, dose response (AID 588339); format: functional, cell-based, hamster; settings: Cricetulus griseus;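 further: CHO cells stably coexpressing TLR9 and MyD88 fusions from primary screen; compound exposure lasted 48 hours before viability readout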
Beta Lactamase = Beta Lactamase (Pseudomonas aeruginosa, UniProt Q932Y6); experiment: BLA reporter interference, concentration series – BLA reporter cells, FRET fluorescence, artefact control for TLR9-MyD88 binding inhibitor project, dose response (AID 588341); format: cell-based;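 further: cell based assay in CHO-K1 cells stably expressing beta-lactamase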
Cytochrome P450 3A4 = Cytochrome P450 3A4 (Homo sapiens, UniProt P08684);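 further: CYP3A4 tested as one member of a cytochrome P450 panel screen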
[8] = biological target: Glucose-6-phosphate 1-dehydrogenase (Homo sapiens, UniProt P11413); experiment: inhibition of Homo sapiens G6PD, dose series – biochemical, fluorescence, selectivity assay for P. falciparum G6PD inhibitor project, dose response (AID 504792); format: functional
Genome polyprotein = Genome polyprotein (dengue virus type 2, UniProt P29990); experiment: flavivirus cap methylation enzyme inhibition – biochemical, confirmation dose response, primary screen (AID 588689); format: functional
[9] = THP-1 cell cytotoxicity, dose response, cytotoxicity control for non-replicating M. tuberculosis project (AID 489025); format: functional
[10] = biological target: T3, Microphthalmia-associated transcription factor (Homo sapiens, UniProt O75030); experiment: reducers of TRPM1 reporter luminescence, concentration series – cell-based, SK-MEL-5, cherry-picked, set 3, MITF inhibitor project, dose response (AID 493073); format: functional;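 further: SK-MEL-5 melanoma cells with luciferase driven by the MITF target TRPM1 promoter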
T3 sequence (O75030 whole entry): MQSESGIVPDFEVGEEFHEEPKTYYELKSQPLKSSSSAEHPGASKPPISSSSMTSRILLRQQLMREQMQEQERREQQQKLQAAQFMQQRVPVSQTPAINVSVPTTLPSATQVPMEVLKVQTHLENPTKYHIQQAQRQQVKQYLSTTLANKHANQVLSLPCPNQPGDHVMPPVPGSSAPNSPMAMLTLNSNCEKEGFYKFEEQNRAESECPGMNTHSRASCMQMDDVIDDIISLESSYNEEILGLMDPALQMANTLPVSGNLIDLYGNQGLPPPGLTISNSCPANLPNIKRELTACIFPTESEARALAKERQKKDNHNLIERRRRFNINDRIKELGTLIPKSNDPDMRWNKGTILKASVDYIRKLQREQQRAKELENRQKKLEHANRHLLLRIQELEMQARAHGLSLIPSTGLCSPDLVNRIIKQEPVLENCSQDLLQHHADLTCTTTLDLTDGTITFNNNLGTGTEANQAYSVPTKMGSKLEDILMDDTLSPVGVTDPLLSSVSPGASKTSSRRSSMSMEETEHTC

cells = format: functional

Sequence of UDP-galactopyranose mutase (P9WIQ1 whole entry): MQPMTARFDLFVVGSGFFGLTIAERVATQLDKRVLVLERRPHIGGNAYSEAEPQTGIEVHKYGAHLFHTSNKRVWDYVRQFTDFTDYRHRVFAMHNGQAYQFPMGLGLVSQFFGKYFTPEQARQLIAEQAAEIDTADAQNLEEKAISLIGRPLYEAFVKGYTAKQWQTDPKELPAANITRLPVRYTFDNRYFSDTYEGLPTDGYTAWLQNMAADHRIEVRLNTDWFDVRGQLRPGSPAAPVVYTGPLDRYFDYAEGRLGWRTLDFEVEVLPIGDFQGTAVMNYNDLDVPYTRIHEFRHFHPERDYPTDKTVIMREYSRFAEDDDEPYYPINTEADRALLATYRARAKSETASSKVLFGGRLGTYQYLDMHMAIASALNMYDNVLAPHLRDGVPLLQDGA
Sequence of Glucose-6-phosphate 1-dehydrogenase (P11413 whole entry): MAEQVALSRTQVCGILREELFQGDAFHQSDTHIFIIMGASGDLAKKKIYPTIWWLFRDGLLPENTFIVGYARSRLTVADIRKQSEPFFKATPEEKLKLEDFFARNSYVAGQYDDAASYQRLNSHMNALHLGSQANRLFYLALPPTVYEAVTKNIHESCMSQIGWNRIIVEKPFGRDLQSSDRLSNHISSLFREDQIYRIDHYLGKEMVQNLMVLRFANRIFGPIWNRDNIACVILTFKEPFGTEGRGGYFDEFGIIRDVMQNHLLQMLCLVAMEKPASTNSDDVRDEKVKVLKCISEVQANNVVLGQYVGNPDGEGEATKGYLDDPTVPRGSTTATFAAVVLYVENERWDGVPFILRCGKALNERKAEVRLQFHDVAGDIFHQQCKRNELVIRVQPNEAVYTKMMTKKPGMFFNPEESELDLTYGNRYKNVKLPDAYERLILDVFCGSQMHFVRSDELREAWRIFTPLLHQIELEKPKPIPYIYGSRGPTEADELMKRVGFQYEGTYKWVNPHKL
Sequence of Cytochrome P450 2C19 (P33261 whole entry, the tested form may be a part): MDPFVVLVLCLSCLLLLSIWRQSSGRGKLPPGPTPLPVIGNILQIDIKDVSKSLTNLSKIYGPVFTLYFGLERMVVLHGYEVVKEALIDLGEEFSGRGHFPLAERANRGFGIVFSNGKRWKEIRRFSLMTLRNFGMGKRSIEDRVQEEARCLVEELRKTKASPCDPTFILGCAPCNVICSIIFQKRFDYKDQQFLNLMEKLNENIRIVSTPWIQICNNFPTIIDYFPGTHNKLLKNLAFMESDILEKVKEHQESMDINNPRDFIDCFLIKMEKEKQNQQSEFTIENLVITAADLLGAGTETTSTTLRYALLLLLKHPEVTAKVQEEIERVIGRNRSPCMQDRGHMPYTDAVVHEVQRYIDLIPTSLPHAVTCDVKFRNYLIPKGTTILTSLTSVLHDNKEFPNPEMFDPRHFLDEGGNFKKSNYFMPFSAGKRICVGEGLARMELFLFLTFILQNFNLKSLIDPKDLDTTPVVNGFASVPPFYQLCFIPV
Sequence of Cytochrome P450 3A4 (P08684 whole entry): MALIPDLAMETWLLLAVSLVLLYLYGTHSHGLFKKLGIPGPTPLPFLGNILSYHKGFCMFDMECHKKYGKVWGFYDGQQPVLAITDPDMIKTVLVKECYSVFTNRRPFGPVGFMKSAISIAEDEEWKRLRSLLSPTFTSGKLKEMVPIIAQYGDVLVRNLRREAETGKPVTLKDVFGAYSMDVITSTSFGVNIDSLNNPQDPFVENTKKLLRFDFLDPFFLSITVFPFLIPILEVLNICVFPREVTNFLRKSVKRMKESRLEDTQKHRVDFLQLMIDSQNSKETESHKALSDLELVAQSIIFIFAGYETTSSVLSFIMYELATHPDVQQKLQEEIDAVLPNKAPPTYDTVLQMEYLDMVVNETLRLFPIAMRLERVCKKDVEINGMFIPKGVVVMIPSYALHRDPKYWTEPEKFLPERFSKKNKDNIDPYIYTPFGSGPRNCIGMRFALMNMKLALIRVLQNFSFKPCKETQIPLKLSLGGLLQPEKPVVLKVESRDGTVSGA
Sequence of Genome polyprotein (P29990 2492-3391 limits assumed): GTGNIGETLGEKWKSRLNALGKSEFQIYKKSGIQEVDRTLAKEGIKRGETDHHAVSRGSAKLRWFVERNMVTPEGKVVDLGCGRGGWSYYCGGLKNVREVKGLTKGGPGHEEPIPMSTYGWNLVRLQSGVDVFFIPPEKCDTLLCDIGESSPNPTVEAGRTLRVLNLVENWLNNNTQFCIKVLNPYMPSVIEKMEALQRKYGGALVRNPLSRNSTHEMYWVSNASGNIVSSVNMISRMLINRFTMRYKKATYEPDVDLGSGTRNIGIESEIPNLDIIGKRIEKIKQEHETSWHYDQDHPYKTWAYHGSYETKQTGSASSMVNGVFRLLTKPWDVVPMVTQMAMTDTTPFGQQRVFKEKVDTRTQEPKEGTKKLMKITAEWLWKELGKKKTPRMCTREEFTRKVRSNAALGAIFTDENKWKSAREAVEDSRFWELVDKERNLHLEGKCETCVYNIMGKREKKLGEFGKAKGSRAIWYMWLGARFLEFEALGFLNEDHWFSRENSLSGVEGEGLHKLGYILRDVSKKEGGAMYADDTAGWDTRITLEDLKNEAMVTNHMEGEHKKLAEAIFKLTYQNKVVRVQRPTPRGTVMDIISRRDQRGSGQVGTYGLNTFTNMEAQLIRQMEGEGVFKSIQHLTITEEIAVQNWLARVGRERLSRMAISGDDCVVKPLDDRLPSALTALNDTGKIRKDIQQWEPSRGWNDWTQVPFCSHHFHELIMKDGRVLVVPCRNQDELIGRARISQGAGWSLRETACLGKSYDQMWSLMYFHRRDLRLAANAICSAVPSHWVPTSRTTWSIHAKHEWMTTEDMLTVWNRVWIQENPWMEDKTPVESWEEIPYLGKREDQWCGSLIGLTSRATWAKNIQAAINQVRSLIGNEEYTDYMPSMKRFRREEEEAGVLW
Sequence of Beta Lactamase (Q932Y6 whole entry): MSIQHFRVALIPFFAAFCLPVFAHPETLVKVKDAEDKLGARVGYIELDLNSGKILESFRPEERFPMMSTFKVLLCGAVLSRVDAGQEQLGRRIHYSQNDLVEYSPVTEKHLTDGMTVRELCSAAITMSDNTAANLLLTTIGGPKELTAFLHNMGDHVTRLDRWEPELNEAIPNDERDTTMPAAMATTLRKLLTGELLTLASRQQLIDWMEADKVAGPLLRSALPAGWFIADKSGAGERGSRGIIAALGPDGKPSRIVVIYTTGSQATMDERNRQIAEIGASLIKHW

For `CCN1C(=O)NC(=O)/C(=C\c2cn(CC(=O)N3CCCC3)c3ccccc23)C1=O`, the AC50 [1] was 107 µM (active).

With `O=Nc1c2[nH]c3ccccc3[n+]([O-])c-2c2ccccc12` the CC50 [2] was 34.2 µM (active), the EC50 [3] was 15.7 µM (active) and the EC50 [4] was 8.47 µM (active). For the same compound, the EC50 (H4) was 12.5 µM (inconclusive), the CC50 [5] was > 40 µM (active) and the IC50 (Exodeoxyribonuclease V) was > 119 µM (inactive). The IC50 [6] was > 119 µM (inactive).

In the case of `Clc1ccccc1-c1nnc(-c2cccs2)o1`, the IC50 (HEK293) was > 67.5 µM (inactive) and the IC50 [7] was > 67.5 µM (inactive).

With `Cc1cc(C)c(C)c(S(=O)(=O)N2CCN(C)CC2)c1C` the IC50 (HEK293) was > 67.5 µM (inactive) and the IC50 [7] was > 67.5 µM (inactive).

With `O=C(OCCN1C(=O)c2cccc3c(N4CCOCC4)ccc(c23)C1=O)c1cccc(Cl)c1` the AC50 [1] was 19.2 µM (active).

With `N#Cc1sc2nc(-c3cccs3)cc(-c3ccc(Cl)cc3)c2c1N` the AC50 (Cytochrome P450 2C19) was 3.98 µM (inconclusive), the IC50 (CHO) was > 49.7 µM (inactive) and the IC50 (Beta Lactamase) was 4.74 µM (active). The AC50 (Cytochrome P450 3A4) was 1.41 µM (inconclusive).

In the case of `CCS(=O)(=O)N1CCN(c2ccc([N+](=O)[O-])c(NC(C)c3ccccc3)c2)CC1` (configuration not stated), the IC50 [8] was > 80 µM (inactive).

In the case of `Cc1cc(O)c(C(C)C)cc1N=Cc1ccc(N(C)C)cc1`, the IC50 [8] was 23.9 µM (inactive) and the IC50 (Genome polyprotein) was > 100 µM (active).

For `COc1ccccc1NC(=O)CCC(=O)N/N=C(/C)c1ccc(C)cc1`, the IC50 (HEK293) was 46.9 µM (inactive) and the IC50 [7] was > 67.5 µM (inactive).

In the case of `Cc1cc(C(=O)N/N=C/c2ccc([N+](=O)[O-])o2)c(C)o1`, the IC50 (Exodeoxyribonuclease V) was > 119 µM (inactive), the CC50 [9] was 38.9 µM (active) and the IC50 [6] was > 119 µM (inactive). For the same compound, the AC50 [10] was 4.79 µM (active) and the IC50 (cells) was 1.89 µM (active).
